In patent US20050245473A1, “Proliferation- and differentiation-modulating agents and uses therefor” (priority 2003, published 2005):
“Also recorded” adds a separate entry of the source.

Assays:
Format in all cases: cell-based
[1] = tested on: transglutaminase type 1 promoter linked to a firefly luciferase gene (TG-1 Luc); experiment: TG-1 Luc reporter assay in transfected human epidermal keratinocytes (HEKs)
Method: (§1) Human epidermal keratinocytes (HEKs) were isolated and cultured from neonatal foreskins as described (1). The SCC cell line, KJD-1/SV40, were grown in culture as previously reported (2). Growth arrest and differentiation was induced by maintaining confluent cells in culture over 48 hours or by treatment with the protein kinase C (PKC) activator, 12-Otetradecanoyl-phorbol-13-acetate (TPA, 50 ng/ml for 48 hours). Both these treatment regimes induce robust and reproducible differentiation in HEKs but not in SCC cell lines (2, 41-43).
(§2) The human cdc2 promoter construct driving expression of a CAT reporter gene (cdc2-CAT) has been previously described (6). The 2.9kb transglutaminase type 1 promoter linked to a firefly luciferase gene (TG-1 Luc), keratin 10 reporter (K10-Luc), β actin-CAT reporter gene and β actin-luciferase reporter gene have also been previously described (2, 6, 41, 44, 45). β actin-CAT or β actin-Luc reporters were used to normalize for transfection efficiency. The CMV-E2F1 construct was a kind gift from Dr Kristian Helin (16). The CMV-E2F 2-5 constructs were generous gifts from Dr David Livingston (46). The mutant E2F1 constructs, 132E2F1 and 409E2F1, were kindly provided by Dr Joseph Nevins (47). The E2F1 dominant-negative (E2Fd/n) construct codes for amino acids 116-235, spanning for the DNA binding domain and heterodimerisation domain (2).
(§3) Transient transfections of cells were performed in 10 cm^2 well, when cells were either 50% or 100% confluent. Reporter activity was assayed 48 hours post-transfection. Transfection protocols for cultured HEKs using Lipofectamine™ (Invitrogen, Australia) and KJD-1/SV40 cells using Effectene (Qiagen, Australia) have been described previously (2). Transfections were performed in triplicate and repeated at least three times.
(§4) Chloramphenicol acetyltransferase assays (CAT) were performed using a CAT ELISA kit (Roche, Australia) as per manufacturer's instructions. The luciferase assay protocol has been previously reported (6, 41).

[2] = tested on: keratin 10 promoter linked to a firefly luciferase gene (K10-Luc); experiment: K10-Luc reporter assay in transfected human epidermal keratinocytes (HEKs)
Method: as §1, §2, §3, §4

[3] = tested on: transglutaminase-1 promoter (TG-1 Luc) in KJD-1/SV40 cells; experiment: TG-1 Luc reporter assay in KJD-1/SV40 squamous cell carcinoma cells; conditions: proliferating KJD-1/SV40 cells; TPA 50 ng/ml for 48 hours where used; FIG. 6
Method: as §1
as §2, with “(2). […]” for “(2).”

[4] = tested on: human cdc2 promoter (cdc2-CAT); experiment: cdc2-CAT reporter assay in transfected human epidermal keratinocytes (HEKs); conditions: proliferating HEKs co-transfected with expression plasmid
Method: as §1
as §2, with “(2). […]” for “(2).”

[5] = cultured HEKs induced to differentiate by treatment with TPA (50 ng/ml for 48 hours), FIG. 1
[6] = differentiated (confluent or TPA-treated) HEKs co-transfected with expression plasmid, assayed 48 hours post-transfection

Row | TG-1 Luc activity ([1]; proliferating HEKs transfected with E2Fd/n) | Molecule | TG-1 Luc activity [1, 5] | K10-Luc activity [2, 5] | TG-1 Luc activity [3] | TG-1 Luc activity [1, 6] | K10-Luc activity [2, 6] | cdc2-CAT reporter activity (proliferation-specific marker) [4]
1 |  | CCCCCCCCCCCCCC(=O)O[C@@H]1[C@@H](C)[C@@]2(O)[C@@H](C=C(CO)C[C@]3(O)C(=O)C(C)=C[C@@H]23)[C@@H]2C(C)(C)[C@]12OC(C)=O [TPA, 12-O-tetradecanoylphorbol-13-acetate, reference compound] | increased | increased | no induction |  |  | 
2 |  | E2F1: E2F1 transcription factor overexpressed from the CMV-E2F1 expression plasmid |  |  |  | significantly suppressed; also recorded: suppresses | significantly suppressed | 
3 | not sufficient to induce | E2Fd/n: E2F1 dominant-negative construct coding for amino acids 116-235, spanning the DNA binding domain and heterodimerisation domain |  |  | not altered | superinduce/derepress; also recorded: superinduces/derepresses | superinduces/derepresses | suppression
